From patent US7322965B2, “Infection-resistant medical devices” (priority 2002, dated 2008)
“Also recorded” adds a separate entry of the source. Like-named read-outs stand apart in the source and are kept apart here.

Assays:
[1] = test system: S. epidermidis RP62A; experiment: Time course adherence assay (prophylactic and delayed treatment); format: cell-based; conditions: for inhibition at 1 µg/mL / inhibition at 2 µg/mL / inhibition at 4 µg/mL / inhibition at 8 µg/mL: Staphylococcus epidermidis, read-out: Percent inhibition of bacterial adherence relative to controls
Procedure: (§1) Drug effects on bacterial adherence were measured 18 hours after treatment initiation using a quantitative spectrophotometric assay.
(§2) Relative inhibition of adherence was expressed by the following equation: (OD of control well−OD of treated well/OD of control well)×100, where OD is the mean optical density of six replicate wells from two separate experiments (three replicates per experiment). Control was defined as infected, drug-free cultures.
(§3) The primary efficacy variable in this study was the measurement of adherent bacteria to polystyrene surfaces after 18 hours to 24 hours of growth. To determine whether statistically significant differences existed between treatments (4×MIC, 2×MIC, MIC, and ½ MIC) compared with the infected-nontreated controls, multiple comparisons according to Dunnett's test (Montgomery, Design and Analysis of Experiments (1991)) were applied for each clinical strain. Differences were considered statistically significant when p<0.05.

[2] = test system: S. epidermidis UC-20207; experiment: as above; format: cell-based; conditions: for inhibition at 1 µg/mL / inhibition at 2 µg/mL / inhibition at 4 µg/mL / inhibition at 8 µg/mL: Staphylococcus epidermidis, read-out: Percent inhibition of bacterial adherence relative to controls; for Mean OD550: UC-20207
Procedure: as §1, §2, §3

[3] = test system: S. aureus and S. epidermidis strains; experiment: Microtiter-plate adherence assay, summary over all strains evaluated; format: cell-based, staphylococci; conditions: concentrations less than the MIC, as low as one-fourth the MIC; five strains
Procedure: Briefly, the inoculum was established by the direct colony suspension method using the Prompt™ Inoculation System (Becton Dickinson, Sparks, Md.). The bacteria suspension, which was equal to the turbidity of a 0.5 McFarland standard, was diluted in TSB to a concentration of 1×10^6 colony forming units per ml (CFU/mL). One hundred microliters of the cell suspension was added to flat-bottom polystyrene wells (Corning Costar, Corning, N.Y.) containing 100 μl of TSB, with and without drug. The final inoculum concentration per well was approximately 5×10^5 CFU/mL. The plates were incubated at 37° C. under static conditions in air. At 18 hours (h) post-infection, the optical density of bacterial growth was measured at a wavelength of 595 nm in a microtiter plate reader (Vmax; Molecular Devices, Sunnyvale, Calif.). […] Adherent “sessile” cells then were fixed with 3.7% (v/v) formaldehyde/2% (w/v) sodium acetate and stained with 0.1% (w/v) crystal violet. Excess stain was rinsed off with deionized water and the plates were air-dried for 4 h. The optical density of bacterial adherence was determined at a wavelength of 550 nm. Preliminary studies were performed to determine the optimal wavelengths for measuring growth turbidity and stained adherent cells (data not shown). To compensate for background absorbance, optical density readings from wells treated with sterile medium, fixative and stain as described above were averaged and then subtracted from all test and control wells. Relative inhibition of adherence or growth was expressed by the following equation: (OD of control well−OD of treated well/OD of control well)×100, where OD is the mean optical density of six replicate wells from two separate experiments (three replicates per experiment). Control was defined as infected, drug-free cultures.
The primary efficacy variable in this study was the measurement of adherent bacterial cells to polystyrene after 18 h of growth. To determine whether statistically significant differences existed between treatment groups (MIC, ½ MIC, and ¼ MIC) compared with the infected-nontreated controls, the Kruskal-Wallis one-way analysis of variance (ANOVA) was applied for each clinical strain. Statistical significance was defined as p-values ≦0.05. An asterisk (*) was placed by all test values less than or equal to the specified significance level.

[4] = 1.0 μg/ml, treatment 0 h post-infection
[5] = 2.0 μg/ml (MIC), treatment 0 h post-infection
[6] = 2.0 μg/ml (MIC), treatment 2 h post-infection
[7] = 2.0 μg/ml (MIC), treatment 4 h post-infection
[8] = 4.0 μg/ml, treatment 0 h post-infection
[9] = 4.0 μg/ml, treatment 2 h post-infection
[10] = 4.0 μg/ml, treatment 4 h post-infection
[11] = 8.0 μg/ml, treatment 0 h post-infection
[12] = 8.0 μg/ml, treatment 2 h post-infection
[13] = 8.0 μg/ml, treatment 4 h post-infection
[14] = 8.0 μg/ml, treatment 6 h post-infection

SMILES: CN[C@H](CC(C)C)C(=O)N[C@H]1C(=O)N[C@@H](CC(N)=O)C(=O)N[C@H]2C(=O)N[C@H]3C(=O)N[C@H](C(=O)N[C@H](C(=O)O)c4cc(O)cc(O)c4-c4cc3ccc4O)[C@H](O)c3ccc(c(Cl)c3)Oc3cc2cc(c3O[C@@H]2O[C@H](CO)[C@@H](O)[C@H](O)[C@H]2O[C@H]2C[C@](C)(N)[C@H](O)[C@H](C)O2)Oc2ccc(cc2Cl)[C@H]1O [Vancomycin]
- Mean OD550 [1, 4]: 0.664 ± 0.632
- Mean OD550 ([1]; 1.0 μg/ml, treatment 2 h post-infection): 1.147 ± 0.527
- Mean OD550 ([1]; 1.0 μg/ml, treatment 4 h post-infection): 2.311 ± 0.318
- Mean OD550 ([1]; 1.0 μg/ml, treatment 6 h post-infection): 2.202 ± 0.238
- Mean OD550 [1, 5]: 0.002 ± 0.002
- Mean OD550 [1, 6]: 0.000 ± 0.001
- Mean OD550 [1, 7]: 1.312 ± 0.936
- Mean OD550 ([1]; 2.0 μg/ml (MIC), treatment 6 h post-infection): 2.114 ± 0.439
- Mean OD550 [1, 8]: 0.002 ± 0.002
- Mean OD550 [1, 9]: 0.000 ± 0.002
- Mean OD550 [1, 10]: 0.003 ± 0.004
- Mean OD550 ([1]; 4.0 μg/ml, treatment 6 h post-infection): 1.562 ± 0.573
- Mean OD550 [1, 11]: 0.001 ± 0.001
- Mean OD550 [1, 12]: 0.000 ± 0.001
- Mean OD550 [1, 13]: 0.004 ± 0.004
- Mean OD550 [1, 14]: 0.025 ± 0.030
- inhibition at 1 µg/mL ([1]; 0 h): 69.3%
- inhibition at 2 µg/mL ([1]; 0 h): 99.9%
- inhibition at 4 µg/mL ([1]; 0 h): 99.9%
- inhibition at 8 µg/mL ([1]; 0 h): 99.9%
- inhibition at 1 µg/mL ([1]; 2 h): 41.4%
- inhibition at 2 µg/mL ([1]; 2 h): 100%
- inhibition at 4 µg/mL ([1]; 2 h): 100%
- inhibition at 8 µg/mL ([1]; 2 h): 100%
- inhibition at 1 µg/mL ([1]; 4 h): 0%
- inhibition at 2 µg/mL ([1]; 4 h): 29.4%
- inhibition at 4 µg/mL ([1]; 4 h): 99.8%
- inhibition at 8 µg/mL ([1]; 4 h): 99.8%
- inhibition at 1 µg/mL ([1]; 6 h): 0%
- inhibition at 2 µg/mL ([1]; 6 h): 0%
- inhibition at 4 µg/mL ([1]; 6 h): 19%
- inhibition at 8 µg/mL ([1]; 6 h): 98.7%
- inhibition at 1 µg/mL ([2]; UC20207, 0 h): 0%
- inhibition at 2 µg/mL ([2]; UC20207, 0 h): 99.8%
- inhibition at 4 µg/mL ([2]; UC20207, 0 h): 99.9%
- inhibition at 8 µg/mL ([2]; UC20207, 0 h): 99.9%
- inhibition at 1 µg/mL ([2]; UC20207, 2 h): 0%
- inhibition at 2 µg/mL ([2]; UC20207, 2 h): 99.4%
- inhibition at 4 µg/mL ([2]; UC20207, 2 h): 99.8%
- inhibition at 8 µg/mL ([2]; UC20207, 2 h): 99.7%
- inhibition at 1 µg/mL ([2]; UC20207, 4 h): 0%
- inhibition at 2 µg/mL ([2]; UC20207, 4 h): 3.6%
- inhibition at 4 µg/mL ([2]; UC20207, 4 h): 98.8%
- inhibition at 8 µg/mL ([2]; UC20207, 4 h): 99%
- inhibition at 1 µg/mL ([2]; UC20207, 6 h): 0%
- inhibition at 2 µg/mL ([2]; UC20207, 6 h): 0%
- inhibition at 4 µg/mL ([2]; UC20207, 6 h): 0%
- inhibition at 8 µg/mL ([2]; UC20207, 6 h): 88.5%
- Mean OD550 [2, 4]: 2.389 ± 0.175
- Mean OD550 [2, 5]: 0.005 ± 0.004
- Mean OD550 [2, 6]: 0.014 ± 0.010
- Mean OD550 [2, 7]: 2.693 ± 0.527
- Mean OD550 [2, 8]: 0.003 ± 0.002
- Mean OD550 [2, 9]: 0.006 ± 0.003
- Mean OD550 [2, 10]: 0.033 ± 0.010
- Mean OD550 [2, 11]: 0.003 ± 0.002
- Mean OD550 [2, 12]: 0.007 ± 0.003
- Mean OD550 [2, 13]: 0.028 ± 0.014
- Mean OD550 [2, 14]: 0.326 ± 0.046
- effect on bacterial adhesion at subinhibitory concentrations [3]: minimal or no activity against bacterial adhesion; also recorded: did not inhibit staphylococcal adherence in four of the five strains assessed
